Values of other authors, collected in patent US20090081312A1, “PREVENTION AND TREATMENT OF ALVEOLAR OSTEITIS” (priority 2007, published 2009).

Test system: bacterial cell growth
Conditions: silver ion; B Gibbins, Ostomy Wound Management 2003

[Ag+] [silver ion, silver]
quantity sufficient to prevent bacterial cell growth: one
